Measured values: patent US8513272B2, “Forms of a fused pyrrolocarbazole compound” (Cephalon, Inc., priority 2008, dated 2013)
Values after ≈ are worked out from the molar mass of the structure shown.

Test: Solubility of various forms of Compound I in water and pH 1, pH 2 (HCl/KCl) buffers at 25° C., HPLC analysis
Format: physicochemical
Details: stirring 300 rpm, saturated solution; for Solubility, pH 1 Buffer: pH 1 HCl/KCl buffer; for Solubility, pH 2 Buffer: pH 2 HCl/KCl buffer
Method: Solubility of Various Forms of Compound I in Water and pH1, pH2 Buffers
Solubility was measured by adding 25 mg of the various forms of Compound I or an amount adequate to maintain a saturated solution in water and pH 1, pH 2 (HCl/KCl buffers). Temperature of 25° C. and a stirring rate of 300 rpm were maintained by using a HEL Crystal Scan unit (HEL, UK). Samples were withdrawn at the times indicated, filtered and analyzed by HPLC for Compound I using the method described below.
HPLC Method for Measurement of CEP11981 Content of Solubility Samples
Testing was performed on a calibrated ThermoFinnigan High Performance Liquid Chromatography (HPLC) system designated LC-0410-AD. The system comprises a P4000 pump, AS3000 autosampler, and UV2000 detector. A TCM 2000 temperature control module was used to heat the column. All standard solutions and samples were prepared in Class A glass volumetric flasks and were placed in autosampler vials. Standard weightings were done using a calibrated Mettler analytical balance. The sample preparations were centrifuged using an Eppendorf microcentrifuge. The primary chromatography data was acquired and integrated using ChromQuest software. Microsoft Office Excel 2003 was used for the calculation of results.
Column: MS C18, 150×4.6 mm ID, 3.5μ Waters, m Xterra packing
Column Temperature: 30° C.
Detector: UV/VIS @ 270 nm
Mobile Phase A: 10 mM Ammonium Acetate (aqueous)
Mobile Phase B: 10 mM Ammonium Acetate in sample solvent

Row | SMILES | Solubility, pH 1 Buffer [mcg/mL] | Solubility, pH 2 Buffer [mcg/mL] | Solubility, Water [µg/mL]
1 | CC(C)Cn1c2ccc(Nc3ncccn3)cc2c2c3c(c4c(c21)CCc1nn(C)cc1-4)C(=O)NC3 [AS, 11-isobutyl-2-methyl-8-(2-pyrimidinylamino)-2,5,6,11,12,13-hexahydro-4H-indazolo[5,4-a]pyrrolo[3,4-c]carbazol-4-one] | 20000 | 0.04 | <1
2 | CC(C)Cn1c2ccc(Nc3ncccn3)cc2c2c3c(c4c(c21)CCc1nn(C)cc1-4)C(=O)NC3 [pTSA-A1, 11-isobutyl-2-methyl-8-(2-pyrimidinylamino)-2,5,6,11,12,13-hexahydro-4H-indazolo[5,4-a]pyrrolo[3,4-c]carbazol-4-one] | 23 | 0.3 | <1
3 | CC(C)Cn1c2ccc(Nc3ncccn3)cc2c2c3c(c4c(c21)CCc1nn(C)cc1-4)C(=O)NC3 [pTSA-A2, 11-isobutyl-2-methyl-8-(2-pyrimidinylamino)-2,5,6,11,12,13-hexahydro-4H-indazolo[5,4-a]pyrrolo[3,4-c]carbazol-4-one] | 11 | 5 | 20 (≈ 41.9 µM)
